Patent US20130244879A1, “USE OF LIPO-CHITOOLIGOSACCHARIDES TO INITIATE EARLY FLOWERING AND FRUIT DEVELOPMENT IN PLANTS AND RELATED METHODS AND COMPOSITIONS” (NOVOZYMES BIOLOGICALS HOLDING A/S, priority 2003, published 2013)

System: Tomato
Assay: Experiment 6: foliar application of LCO at variable growth stages, field tomato
Assay type: in vivo
Design: Fruit # % vs. control / % of weight vs. control: concentration or dose not given beside the values
Source text: Tomato seedlings (6-leaf stage) were transplanted in farmland. The plants were watered on the day that they were transplanted and whenever the soil was very dry during the season. Fertilizer (20-20-20) was applied at 250 kg/ha to the tomato field before transplantation. All tomato plants were supported by sticks when they were heavily loaded with fruit. Fruit yield (in the table) was finally cumulated at the end of the season.

[1] = LCO applied 10 + 20 + 30 + 40 + 50 DATP
[2] = LCO applied 10 + 20 + 30 + 40 DATP

Lipo-chitooligosaccharides [LCO]
% of weight vs. control [1]: 27.8% | Average Weight (g/fruit) [1]: 126.8 g/fruit | Fruit # % vs. control [1]: 38.41% | Fruit on 24 plants [1]: 1373a | Weight (kg) per 24 plants [1]: 174.07a kg | % of weight vs. control [2]: 12.0% | Average Weight (g/fruit) [2]: 128.0 g/fruit | Fruit # % vs. control [2]: 20.06% | Fruit on 24 plants [2]: 1191abc | Weight (kg) per 24 plants [2]: 152.50ab kg | % of weight vs. control (LCO applied 10 + 20 + 30 DATP): 18.9% | Average Weight (g/fruit) (LCO applied 10 + 20 + 30 DATP): 126.3 g/fruit | Fruit # % vs. control (LCO applied 10 + 20 + 30 DATP): 29.23% | Fruit on 24 plants (LCO applied 10 + 20 + 30 DATP): 1282ab | Weight (kg) per 24 plants (LCO applied 10 + 20 + 30 DATP): 161.89ab kg | % of weight vs. control (LCO applied 10 + 20 DATP): 12.7% | Average Weight (g/fruit) (LCO applied 10 + 20 DATP): 136.4 g/fruit | Fruit # % vs. control (LCO applied 10 + 20 DATP): 13.41% | Fruit on 24 plants (LCO applied 10 + 20 DATP): 1125bc | Weight (kg) per 24 plants (LCO applied 10 + 20 DATP): 153.43ab kg | % of weight vs. control (LCO applied 10 DATP (7/4)): 10.8% | Average Weight (g/fruit) (LCO applied 10 DATP (7/4)): 118.2 g/fruit | Fruit # % vs. control (LCO applied 10 DATP (7/4)): 28.63% | Fruit on 24 plants (LCO applied 10 DATP (7/4)): 1276ab | Weight (kg) per 24 plants (LCO applied 10 DATP (7/4)): 150.88ab kg | % of weight vs. control (LCO applied 20 DATP (7/15)): 20.3% | Average Weight (g/fruit) (LCO applied 20 DATP (7/15)): 130.0 g/fruit | Fruit # % vs. control (LCO applied 20 DATP (7/15)): 27.02% | Fruit on 24 plants (LCO applied 20 DATP (7/15)): 1260ab | Weight (kg) per 24 plants (LCO applied 20 DATP (7/15)): 163.78ab kg | % of weight vs. control (LCO applied 30 DATP (7/25)): 17.6% | Average Weight (g/fruit) (LCO applied 30 DATP (7/25)): 133.5 g/fruit | Fruit # % vs. control (LCO applied 30 DATP (7/25)): 20.87% | Fruit on 24 plants (LCO applied 30 DATP (7/25)): 1199abc | Weight (kg) per 24 plants (LCO applied 30 DATP (7/25)): 160.11ab kg | % of weight vs. control (LCO applied 40 DATP (8/8)): 14.5% | Average Weight (g/fruit) (LCO applied 40 DATP (8/8)): 118.3 g/fruit | Fruit # % vs. control (LCO applied 40 DATP (8/8)): 32.86% | Fruit on 24 plants (LCO applied 40 DATP (8/8)): 1318ab | Weight (kg) per 24 plants (LCO applied 40 DATP (8/8)): 155.89ab kg | % of weight vs. control (LCO applied 50 DATP (8/18)): 13.6% | Average Weight (g/fruit) (LCO applied 50 DATP (8/18)): 138.7 g/fruit | Fruit # % vs. control (LCO applied 50 DATP (8/18)): 12.40% | Fruit on 24 plants (LCO applied 50 DATP (8/18)): 1115bc | Weight (kg) per 24 plants (LCO applied 50 DATP (8/18)): 154.62ab kg | increased fruit number compared to untreated control (best of 9 treatments): up to 38.4% | increased total fruit weight compared to untreated control (best of 9 treatments): up to 27.8%
